The values below come from US7094909B2, “HIV protease inhibitors, compositions containing the same, their pharmaceutical uses and materials for their synthesis” (priority 2001, dated 2006).

The target in the assay is T1, HIV-1 protease (Q7S mutant form) (Human immunodeficiency virus type 1 group M subtype B, UniProt P04585, Q495S).
T1 construct: made in house
In words: HIV-1 Protease RET assay. The format is biochemical. How it is done: Ki's for the inhibitors of HIV-1 protease were determined using a resonance energy transfer (RET) assay. […] This enzyme is first partially purified as inclusion bodies from cell lysate. It is then solublized in 8M urea and passed through a Q-Sepharose column (Pharmacia) for further purification. To refold this protein, samples containing Q7S is dialyzed into 50 mM sodium phosphate pH 7.0, 50 mM NaCl, 10 mM DTT, and 10% glycerol.
The commercially available peptide substrate (Molecular Probes Cat. # H-2930) RE(EDANS)SQNYPIVQK(DABCYL)R is used to assess activity and Ki's. This peptide is cleaved quantitatively by HIV-1 Pr at the Tyr-Pro bond. The EDANS fluorophore absorbs at 340 nm and emits at 490 nm. The reaction is carried out in a 96 well plate in a total volume of 100 µL and is run for 12 minutes at 37 C under steady-state conditions with 5 µM substrate and 2 nM active dimer enzyme concentration. The literature value Km for this substrate and enzyme is 103+/−8 µM (See Matayoshi, et al., “Novel Fluorogenic Substrates for Assaying Retroviral Proteases by Resonance Energy Transfer,” Science 247, 954 (1990)). The buffer for this reaction is 0.1M sodium acetate pH 4.8, 1M NaCl, 1 mM EDTA, 5 mM dithiothreitol, 10% dimethyl sulfoxide and 1 mg/ml bovine serum albumin. Inhibition curves are fit using the Morrison tight binding equation.

Setting [1] is: Ave. Ki (nM), RET assay, Q7S enzyme, Morrison tight binding fit.

`Cc1ccccc1CNC(=O)[C@H]1N(C(=O)[C@@H](O)[C@H](Cc2ccccc2)NC(=O)CCCN)CSC1(C)C` yielded a Ki (Ki, unit inferred) of 51 nM. This counts as double-digit nanomolar.

`COc1ccc(CNC(=O)N[C@@H](Cc2ccccc2)[C@H](O)C(=O)N2CSC(C)(C)[C@H]2C(=O)NCc2ccccc2C)cc1OC` [Example B74, (R)-3-{(2S,3S)-3-[3-(3,4Dimethoxy-benzyl)ureido]-2-hydroxy-4-phenyl-butyryl}-5,5-dimethyl-thiazolidine-4-carboxylic acid 2-methyl-benzylamide] came in with a Ki under setting [1] of 39 nM. The compound `CC1(C)SCN(C(=O)[C@@H](O)[C@H](Cc2ccccc2)NC(=O)[C@@H]2CCCO2)[C@@H]1C(=O)NC[C@H]1CCCO1` came in with a Ki (Ki, unit inferred) of 30 nM.

Regarding `Cc1ccccc1CNC(=O)[C@H]1N(C(=O)[C@@H](O)[C@H](Cc2ccccc2)NC(=O)CCNC(=O)OC(C)(C)C)CSC1(C)C` [drawing 1035], the affinity (Ki, unit inferred), expressed as Ki, was 94 nM. Still for that read-out and setting: the result for `Cc1ccccc1CNC(=O)[C@H]1N(C(=O)[C@@H](O)[C@H](Cc2ccccc2)NC(=O)C(C)CNC(=O)OC(C)(C)C)CSC1(C)C` (stereo partly drawn) reads 52 nM.

With `Cc1c(O)cccc1C(=O)N[C@@H](Cc1ccccc1)[C@H](O)C(=O)N1CSC(C)(C)[C@H]1C(=O)NCc1cc(Cl)nc(Cl)c1`, the Ki (Ki, unit inferred) was determined as 47 nM. On the same count and under the same terms, the result for `COc1cccc(CNC(=O)[C@H]2N(C(=O)[C@@H](O)[C@H](Cc3ccccc3)NC(=O)OC(C)(C)C)CSC2(C)C)c1` reads 68 nM; that for `Cc1ccccc1CNC(=O)[C@H]1N(C(=O)[C@@H](O)[C@H](Cc2ccccc2)NC(=O)COc2cccnc2C)CSC1(C)C`, 17 nM.

`CC#CC(C)OC(=O)NC(Cc1ccccc1)[C@H](O)C(=O)N1CSC(C)(C)[C@H]1C(=O)NCc1ccccc1C` (stereo partly drawn) gave a Ki (Ki, unit inferred) of 29 nM. Same read-out and setting: the result for `Cc1ccccc1CNC(=O)[C@H]1N(C(=O)[C@@H](O)[C@H](Cc2ccccc2)NS(=O)(=O)c2ccccc2)CSC1(C)C` reads 152 nM. Turning to `Cc1ccccc1CNC(=O)[C@H]1N(C(=O)[C@@H](O)[C@H](Cc2ccccc2)NC(=O)NCc2cccc(C(F)(F)F)c2)CSC1(C)C` [Example B75, (R)-3-{(2S,3S)-2-Hydroxy-4-phenyl-3-[3-(3-trifluoromethyl-benzyl)-ureido]-butyryl}-5,5-dimethyl-thiazolidine-4-carboxylic acid 2-methyl-benzylamide], the Ki under setting [1] was determined as 81 nM. On the same count and under the same terms, the result for `CC1(C)SCN(C(=O)[C@@H](O)[C@H](Cc2ccccc2)NC(=O)NCc2c(F)cccc2F)[C@@H]1C(=O)NCc1c(F)cccc1F` [Example B49] reads 120 nM. Regarding `Cc1ccccc1CNC(=O)[C@H]1N(C(=O)[C@@H](O)[C@H](Cc2ccccc2)NC(=O)CC(C)NC(=O)OC(C)(C)C)CSC1(C)C` (stereo partly drawn), the Ki (Ki, unit inferred) was 122 nM. This counts as sub-micromolar.

For the setting “Ki, unit inferred”, `CCc1cccc(CNC(=O)[C@H]2N(C(=O)[C@@H](O)[C@H](Cc3ccccc3)NC(=O)NCc3ccc(OC)cc3)CSC2(C)C)c1` showed a Ki of 59 nM. The same measure, in the same setting: the result for `Cc1ccccc1CNC(=O)[C@@H]1N(C(=O)[C@@H](O)[C@H](Cc2ccccc2)NC(=O)c2cccc(O)c2C)CSC12CCC2` reads 30 nM; that for `Cc1ccccc1CNC(=O)[C@H]1N(C(=O)[C@@H](O)[C@H](Cc2ccccc2)NC(=O)CCNC(=O)OC(C)(C)C)CSC1(C)C` [drawing 1038], 48 nM; that for `CC1(C)SCN(C(=O)[C@@H](O)[C@H](Cc2ccccc2)NC(=O)CSc2nc[nH]n2)[C@@H]1C(=O)NCc1cccs1`, 13.9 nM.

Under “Ki, unit inferred”, `Cc1ccccc1CNC(=O)[C@H]1N(C(=O)[C@@H](O)[C@H](Cc2ccccc2)NC(=O)/C=C/c2cccnc2)CSC1(C)C` came in with a Ki of 9.9 nM. Take `Cc1c(O)cccc1C(=O)N[C@@H](Cc1ccccc1)[C@H](O)C(=O)N1CSC(C)(C)[C@H]1C(=O)NC1(C#N)CC1`: where the note is “Ki, unit inferred”, the Ki came out at 6.2 nM. On the same count and under the same terms, the value for `CC(C)(C)OC(=O)N[C@@H](Cc1ccccc1)[C@H](O)C(=O)N1CSC(C)(C)C1C(=O)NCc1c(F)cccc1F` (stereo partly drawn) was 54 nM. The same measure, in the same setting: the result for `Cc1ccccc1CNC(=O)[C@H]1N(C(=O)[C@@H](O)[C@H](Cc2ccccc2)NC(=O)/C=C/c2ccco2)CSC1(C)C` reads 60 nM. For the compound `CCCNC(=O)[C@@H]1CC(F)(F)CN1C(=O)[C@@H](O)[C@H](Cc1ccccc1)NC(=O)O[C@H]1CCOC1`, the inhibitory constant (Ki) (Ki, unit inferred) was 42 nM.

As for `Cc1ccccc1CNC(=O)[C@H]1N(C(=O)[C@@H](O)[C@H](Cc2ccccc2)NC(=O)Oc2ccc(Cl)cc2)CSC1(C)C`, the inhibition constant Ki (Ki, unit inferred) came to 468 nM. Under setting [1], `Cc1ccccc1CNC(=O)[C@H]1N(C(=O)[C@@H](O)[C@H](Cc2ccccc2)NC(=O)NC(C)C)CSC1(C)C` [Example B17, 3-[(S)-2-Hydroxy-3-(3-isopropyl-ureide)-4-phenyl-butyryl]-5,5-dimethyl-thiazolidine-4carboxylic acid 2-methyl-benzylamide] came in with a Ki of 4.8 nM. Where the note is “Ki, unit inferred”, `COc1ccc(CNC(=O)C2N(C(=O)[C@@H](O)[C@H](Cc3ccccc3)NC(=O)OC(C)(C)C)CSC2(C)C)cc1` (stereo partly drawn) displayed a Ki of 25 nM.

Turning to `Cc1c(C(=O)N[C@@H](Cc2ccccc2)[C@H](O)C(=O)N2CSC(C)(C)[C@H]2C(=O)N[C@@H]2C=CCCC2)ccc(F)c1O`, the affinity (Ki, unit inferred) corresponds to a Ki of 17.3 nM. Under setting [1], `COc1cccc(CNC(=O)N[C@@H](Cc2ccccc2)[C@H](O)C(=O)N2CSC(C)(C)[C@H]2C(=O)NCc2ccccc2C)c1` [Example B76, (R)-3-{(2S,3S)-2-Hydroxy-3-[3-(3-methoxy-benzyl)-ureido]-4-phenyl-butyryl}-5,5-dimethyl-thiazolidine-4-carboxylic acid 2-methyl-benzylamide] had an inhibitory constant (Ki) of 11.2 nM. For the compound `COc1cccc(CNC(=O)[C@H]2N(C(=O)[C@@H](O)[C@H](Cc3ccccc3)NC(=O)C=C(C)C)CSC2(C)C)c1`, the inhibition constant Ki (Ki, unit inferred) came to 125 nM. The same measure, in the same setting: the result for `CCCNC(=O)[C@@H]1CC(F)(F)CN1C(=O)[C@@H](O)[C@H](Cc1ccccc1)NC(=O)c1ccc(C)c(O)c1C` reads 108 nM. With `Cc1c(O)cccc1C(=O)N[C@@H](Cc1ccccc1)[C@H](O)C(=O)N1CO[C@@H](C)[C@H]1C(=O)N[C@@H]1C=CCCC1` [Example C28, (4S,5S)-3-((2S,3S)-2-Hydroxy-3-{[1-(3-hydroxy-2-methyl-phenyl)-methanoyl]-amino}-4phenyl-butanoyl)-5-methyl-oxazoldine-4-carboxylic acid (S)-cyclohex-2-enylamide], the Ki under setting [1] is 8.4 nM.

`CC1(C)SCN(C(=O)[C@@H](O)[C@H](Cc2ccccc2)NC(=O)NCc2ccccc2C(F)(F)F)[C@@H]1C(=O)NCc1ccccc1C(F)(F)F` [Example B52, 3-{(2S,3S)-2-Hydroxy-4-phenyl-3-[3-(2-trifluoromethyl-benzyl)-ureido]-butyryl}-5,5-dimethyl-thiazolidine-4-carboxylic acid 2-trifluoromethyl-benzylamide]: under setting [1], affinity was put at a Ki of 120 nM. In the case of `C#CCOC(=O)N[C@@H](Cc1ccccc1)[C@H](O)C(=O)N1CSC(C)(C)[C@H]1C(=O)NCc1cccc(CC)c1`, the affinity (Ki, unit inferred), expressed as Ki, was 3.8 nM. Same read-out and setting: the value for `Cc1ccccc1CNC(=O)C1N(C(=O)[C@@H](O)C(Cc2ccccc2)NC(=O)C(C)(C)C)CSC1(C)C` (stereo partly drawn) was 47 nM; that for `Cc1ccccc1CNC(=O)[C@H]1N(C(=O)[C@@H](O)[C@H](Cc2ccccc2)NC(=O)CCN)CSC1(C)C` was 156 nM. Under setting [1], `C=CCOC(=O)N[C@@H](Cc1ccccc1)[C@H](O)C(=O)N1CSC(C)(C)[C@H]1C(=O)NCc1c(F)cccc1F` [Example B50, {(1S,2S)-1-Benzyl-3-[(R)-4-(2,6-difluoro-benzylcarbamoyl)-5,5-dimethyl-thiazolidin-3-yl]-2-hydroxy-3-oxo-propyl}-carbamic acid allyl ester] showed a Ki of 7.4 nM. `CC(C)=CC(=O)N[C@@H](Cc1ccccc1)[C@H](O)C(=O)N1CSC(C)(C)[C@H]1C(=O)NCc1ccccc1C`: the Ki (Ki, unit inferred) was determined as 6.1 nM. This counts as single-digit nanomolar. Under “Ki, unit inferred”, `Cc1ccccc1CNC(=O)[C@H]1N(C(=O)[C@@H](O)[C@H](Cc2ccccc2)NC(=O)CNc2ccc(F)cc2)CSC1(C)C` registered a Ki of 6 nM.

With `CC(C)(C)OC(=O)N[C@@H](Cc1ccccc1)[C@H](O)C(=O)N1CSC(C)(C)[C@H]1C(=O)NCc1ccccc1`, affinity (Ki, unit inferred) was put at a Ki of 21 nM. Same read-out and setting: the value for `CC1(C)SCN(C(=O)[C@@H](O)[C@H](Cc2ccccc2)NC(=O)NCc2ccccc2Cl)C1C(=O)NCc1ccccc1Cl` (stereo partly drawn) [drawing 953] was 74 nM. As to `C#CCOC(=O)N[C@@H](Cc1ccccc1)[C@H](O)C(=O)N1CC(F)(F)C[C@H]1C(=O)NCc1ccccc1C` [Example C44, {1-Benzyl-3-[4,4-difluoro-2-(2-methyl-benzylcarbamoyl)-pyrrolidin-1-yl]-2-hydroxy-3-oxo-propyl}-carbamic acid prop-2-ynyl ester], under setting [1], the Ki is 14.8 nM.

For `Cc1ccccc1CNC(=O)[C@H]1N(C(=O)C(O)C(Cc2ccccc2)NC(=O)NCc2ccccc2Br)CSC1(C)C` (stereo in doubt) [Example B72, 3-{3-[3-(2-Bromo-benzyl)ureido]-2-hydroxy-4-phenyl-butyryl}-5,5-dimethyl-thiazolidine-4-carboxylic acid 2-methyl-benzylamide], the affinity under setting [1], expressed as Ki, was 6.6 nM. `COc1ccc(CNC(=O)N[C@@H](Cc2ccccc2)[C@H](O)C(=O)N2CSC(C)(C)C2C(=O)NCc2ccc(OC)cc2)cc1` (stereo partly drawn): for the setting “Ki, unit inferred”, the Ki amounted to 7.8 nM.

As usually defined, the Ki is the equilibrium dissociation constant of an inhibitor or competing ligand from its target. Read a low Ki as higher affinity.
